Source: patent US12472168B2, “Ring-fused thiazolino 2-pyridones, methods for preparation thereof and their use in the treatment and/or prevention of a disease involving gram-positive bacteria” (Quretech Bio AB, priority 2017, dated 2025)
Converted amounts (≈) assume the structure as drawn.

What was measured:
MRSA [1] = assay: Effect of combination with Oxacillin on MRSA, CFU counts; type: cell-based, Methicillin-resistant Staphylococcus aureus; details: 37° C. 18 h
Protocol: (§1) The mixture (200 μL) was incubated at 37° C. for 18 h. A control without the test compound was performed in the same way.

E. faecalis OG1RF [2] = assay: Effect of combination of Gentamicin and Example 11 on E. faecalis OG1RF in vitro (FIG. 7); type: cell-based, Enterococcus faecalis; details: agent alone
E. faecalis OG1RF [3] = assay: Combination with Gentamicin in vivo, mouse model of CAUTI, OG1RF; design: species or system Enterococcus faecalis; details: C57BL/6Ncr mice
Protocol: (§2) Mice used in this study were six-week-old female wild-type C57BL/6Ncr mice. Mice were anesthetized by inhalation of isoflurane and implanted with a 5-mm length of platinum-cured silicone catheter. […] Mice were sacrificed at 48 hours post-infection by cervical dislocation after anaesthesia inhalation, and the bladders were aseptically harvested. Subsequently, the silicone implant was retrieved from the bladder. Catheters were placed in 1×PBS (1 mL), sonicated for 10 min, to detach E. faecalis and bladders were homogenized in 1×PBS (1 mL). For bacterial enumeration on catheters and bladder, samples were serially diluted and plated on BHI for CFU enumeration.

E. faecalis OG1RF [4] = assay: Combination with Vancomycin in vivo, mouse model of CAUTI, OG1RF (vancomycin sensitive); design: species or system Enterococcus faecalis; details: C57BL/6Ncr mice
Protocol: as §2, with “catheter. Then, mice were infected immediately following catheter implantation with 50 μl of ˜2×10^7 CFU of E. faecalis OG1RF (FIG. 10A and FIG. 10B) or V583 (FIG. 11A and FIG. 11B) in PBS (1 mL) was introduced in the bladder lumen by transurethral inoculation.” for “catheter.”

[5] = test system: vancomycin resistant E. faecalis V583; assay: Combination with Vancomycin in vivo, mouse model of CAUTI, V583 (vancomycin resistant); design: species or system Enterococcus faecalis; details: C57BL/6Ncr mice
Protocol: as §2, with “catheter. Then, mice were infected immediately following catheter implantation with 50 μl of ˜2×10^7 CFU of E. faecalis OG1RF (FIG. 10A and FIG. 10B) or V583 (FIG. 11A and FIG. 11B) in PBS (1 mL) was introduced in the bladder lumen by transurethral inoculation.” for “catheter.”

[6] = test system: Vancomycin Resistant Enterococcus (VRE) strain V583; assay: Effect of combination of Example 11 and Vancomycin on VRE (V583), CFU counts; type: cell-based; details: for avg. CFU: VRE V583 OD 0.001, 18 h
Protocol: The mixture (200 μL) was incubated at 37° C. for 18 h Controls were performed without bacteria-vehicle (DMSO), Vancomycin vehicle (water) and BHI controls that use those as treatment to the inoculum, to ensure no previous bacterial contamination in the reagents. Bacterial CFU were counted as standard methods using serial dilution plated on BHI plates to determine the effect of each treatment.

E. faecalis OG1RF [7] = assay: Stand alone activity in vivo, mouse model of catheter-associated urinary tract infection (CAUTI); design: species or system Enterococcus faecalis; details: C57BL/6Ncr mice; 10 mg/kg intraperitoneally 24 hours post-infection; sacrificed 48 hours post-infection; compound alone
Protocol: as §2, with “catheter. Then, mice were infected immediately following catheter implantation with 50 μl of ˜2×10^7 CFU of E. faecalis OG1RF in PBS (1 mL) was introduced in the bladder lumen by transurethral inoculation.” for “catheter.”, “mL).” for “mL). For bacterial enumeration on catheters and bladder, samples were serially diluted and plated on BHI for CFU enumeration.”
Mice used in this study were six-week-old female wild-type C57BL/6Ncr mice. Mice were anesthetized by inhalation of isoflurane and implanted with a 5-mm length of platinum-cured silicone catheter.
Mice were sacrificed at 48 hours post-infection by cervical dislocation after anaesthesia inhalation, and the bladders were aseptically harvested. Subsequently, the silicone implant was retrieved from the bladder. Catheters were placed in 1×PBS (1 mL), sonicated for 10 min, to detach E. faecalis and bladders were homogenized in 1×PBS (1 mL). For bacterial enumeration on catheters and bladder, samples were serially diluted and plated on BHI for CFU enumeration.

Streptococcus = assay: MIC and MBC assays; type: cell-based; details: compound alone, no antibiotic
Protocol: (§3) MIC was defined by the lowest concentration of the test compound that inhibits visible growth of pathogen of interest. The optical density of the pathogen of interest culture was measured by OD600.
(§4) MBC was determined colony forming units (CFUs) enumeration by serially diluting and plating bacterial cultures on BHI plates.
(§5) Thus, no antibiotic was used in Table 2.

E. faecalis = assay: MIC and MBC assays; type: cell-based; details: Enterococcus faecalis, compound alone, no antibiotic; for MIC: overnight (18 hrs)
Protocol: as §3, §4, §5

MRSA [8] = assay: Effect of compound alone on MRSA, CFU counts; type: cell-based, Methicillin-resistant Staphylococcus aureus; details: compound 25 μM alone, 37° C. 18 h
Protocol: as §1

MRSA [9] = assay: Minimum Inhibitory Concentration (MIC) and Minimum Bactericidal Concentration (MBC) assays; type: cell-based, Methicillin-resistant Staphylococcus aureus; details: Staphylococcus aureus, compound alone, no antibiotic; for MIC: 18 h, overnight (18 hrs), read-out: MIC
Protocol: as §3, §4, §5

[10] = 2 mg/kg intraperitoneally 24 hours post-infection, agent alone
[11] = 3 mg/kg intraperitoneally 24 hours post-infection, agent alone
[12] = combination of Vancomycin and Example 49, 3 mg/kg intraperitoneally
[13] = combination of Gentamicin and Example 49, 2 mg/kg intraperitoneally
[14] = MRSA OD 0.1, compound 25 μM in combination with Oxacillin 9 μM
[15] = MRSA OD 1, compound 25 μM in combination with Oxacillin 9 μM

In the case of `Cc1onc(-c2ccccc2)c1C(=O)N[C@@H]1C(=O)N2[C@@H]1SC(C)(C)[C@@H]2C(=O)O` [Oxacillin, oxacillin, reference compound], the CFUs/ml (MRSA [1]; MRSA OD 0.001, Oxacillin 9 μM and DMSO (no test compound)) is reported as 600 CFUs/ml, the CFUs/ml (MRSA [1]; MRSA OD 0.1, Oxacillin 9 μM and DMSO (no test compound)) is reported as 1.6E+10 CFUs/ml and the CFUs/ml (MRSA [1]; MRSA OD 1, Oxacillin 9 μM and DMSO (no test compound)) is reported as 2.2E+09 CFUs/ml.

In the case of gentamicin [reference compound], the “number of observed bacterial CFUs/ml” value (E. faecalis OG1RF [2]) is reported as “did not result in a decrease”, the “reduction of bacterial titers in the bladders” value (“reduction … in the bladders” for short) (E. faecalis OG1RF [3]; [10]) is reported as “did not result in reduction” and the “reduction of bacterial titers on catheters” value (“reduction … on catheters” for short) (E. faecalis OG1RF [3]; [10]) is reported as “did not result in reduction”.

`CN[C@H](CC(C)C)C(=O)N[C@H]1C(=O)N[C@@H](CC(N)=O)C(=O)N[C@H]2C(=O)N[C@H]3C(=O)N[C@H](C(=O)N[C@H](C(=O)O)c4cc(O)cc(O)c4-c4cc3ccc4O)[C@H](O)c3ccc(c(Cl)c3)Oc3cc2cc(c3O[C@@H]2O[C@H](CO)[C@@H](O)[C@H](O)[C@H]2O[C@H]2C[C@](C)(N)[C@H](O)[C@H](C)O2)Oc2ccc(cc2Cl)[C@H]1O` [Vancomycin, vancomycin] was tested, and the “reduction … in the bladders” value (E. faecalis OG1RF [4]; [11]) was “did not result in reduction”, the “reduction of bacterial titers on the catheters” value (“reduction … on the catheters” for short) (E. faecalis OG1RF [4]; [11]) was “did not result in reduction” and the “reduction of bacterial titers in the bladder” value [5, 11] was 0.3 log units. For the same compound, the “reduction of bacterial titers on the catheter” value [5, 11] was “no effect”, the “avg. CFU” value ([6]; Experiment 1, Vancomycin 1 μg/ml alone (Control)) was 1.20E+09 CFU and the “avg. CFU” value ([6]; Experiment 1, Vancomycin 2 μg/ml alone (Control)) was 1.35E+09 CFU. The “avg. CFU” value ([6]; Experiment 1, Vancomycin 4 μg/ml alone (Control)) was 5.00E+08 CFU, the “avg. CFU” value ([6]; Experiment 1, Vancomycin 8 μg/ml alone (Control)) was 4.00E+08 CFU and the “avg. CFU” value ([6]; Experiment 1, Vancomycin 16 μg/ml alone (Control)) was 3.00E+08 CFU. The “avg. CFU” value ([6]; Experiment 1, Vancomycin 32 μg/ml alone (Control)) was 5.50E+08 CFU, the “avg. CFU” value ([6]; Experiment 1, Vancomycin 64 μg/ml alone (Control)) was 4.00E+07 CFU and the “avg. CFU” value ([6]; Experiment 2, Vancomycin 1 μg/ml alone (Control)) was 1.70E+09 CFU. For the same compound, the “avg. CFU” value ([6]; Experiment 2, Vancomycin 2 μg/ml alone (Control)) was 1.40E+09 CFU, the “avg. CFU” value ([6]; Experiment 2, Vancomycin 4 μg/ml alone (Control)) was 8.50E+08 CFU and the “avg. CFU” value ([6]; Experiment 2, Vancomycin 8 μg/ml alone (Control)) was 8.50E+08 CFU. For the same compound, the “avg. CFU” value ([6]; Experiment 2, Vancomycin 16 μg/ml alone (Control)) was 4.50E+08 CFU, the “avg. CFU” value ([6]; Experiment 2, Vancomycin 32 μg/ml alone (Control)) was 1.95E+06 CFU and the “avg. CFU” value ([6]; Experiment 2, Vancomycin 64 μg/ml alone (Control)) was 6.00E+04 CFU. The “effect on the bacterial growth” value ([6]; Vancomycin alone at a concentration below 64 μg/ml, VRE V583) was “no or no substantial effect”.

`CCCCCOc1ccc(-c2sc3c(OC)c(Cc4c5ccccc5cc5ccccc45)cc(=O)n3c2C(=O)O)cc1C` [Example 49, 7-(anthracen-9-ylmethyl)-8-methoxy-2-(3-methyl-4-(pentyloxy)phenyl)-5-oxo-thiazolo[3,2-a]pyridine-3-carboxylic acid] was tested, and the “reduction … in the bladders” value (E. faecalis OG1RF [4]; [11]) was “about 1 log unit”, the “reduction … on the catheters” value (E. faecalis OG1RF [4]; [11]) was “about 1 log unit” and the “reduction of bacterial titers in the bladder” value (E. faecalis OG1RF [4]; [12]) was “about 2 log units”. For the same compound, the “reduction … on the catheters” value (E. faecalis OG1RF [4]; [12]) was “about 2 log units”, the “reduction … in the bladders” value (E. faecalis OG1RF [3]; [10]) was “about 0.2 log units” and the “reduction … on catheters” value (E. faecalis OG1RF [3]; [10]) was ~0.5 log units. For the same compound, the “reduction of bacterial titers in the bladder” value (E. faecalis OG1RF [3]; [13]) was “about 2 log units”, the “reduction … on catheters” value (E. faecalis OG1RF [3]; [13]) was “about 1.5 log units” and the “reduction of bacterial titers in the bladder” value [5, 11] was “about 0.5 log units”. For the same compound, the “reduction of bacterial titers on the catheter” value [5, 11] was “no effect”, the “reduction of bacterial titers in the bladder” value [5, 12] was “about 2 log units” and the “reduction of bacterial titers on the catheter” value [5, 12] was “about 1 log unit”. For the same compound, the “reduction of bacterial titers in the bladder” value (E. faecalis OG1RF [7]) was “about 1.5 log units” and the “reduction … on the catheters” value (E. faecalis OG1RF [7]) was “about 1.5 log units”.

`CCCCCOc1ccc(-c2sc3c(OC)c(Cc4cccc5ccccc45)cc(=O)n3c2C(=O)O)cc1C` [Example 8, 5-Methoxy-4-[(1-naphthyl)methyl]-2-oxo-8-[4-(pentyloxy)-3-methyl-phenyl]-7-thia-1-azabicyclo[4.3.0]nona-3,5,8-triene-9-carboxylic acid] was tested, and the MBC (Streptococcus) was 7 µM (≈ 3.79 µg/mL), the MBC (E. faecalis) was 12.5 µM (≈ 6.77 µg/mL) and the MIC (E. faecalis) was 25 µM (≈ 13.5 µg/mL). The CFUs/ml (MRSA [8]; MRSA OD 0.001) was 4.0E+05 CFUs/ml, the CFUs/ml (MRSA [8]; MRSA OD 0.1) was 6.0E+06 CFUs/ml and the CFUs/ml (MRSA [8]; MRSA OD 1) was 6.0E+07 CFUs/ml. The CFUs/ml (MRSA [1]; [14]) was 1.7E+04 CFUs/ml, the CFUs/ml (MRSA [1]; [15]) was 1E+06 CFUs/ml and the MIC (MRSA [9]) was 12 µM (≈ 6.5 µg/mL). It also gave an MBC (MRSA [9]) of 13 µM (≈ 7.04 µg/mL).

Work on `CCCCOc1ccc(-c2sc3c(OC)c(Cc4cccc5ccccc45)cc(=O)n3c2C(=O)O)cc1C` [Example 9, 8-(4-Butoxy-3-methyl-phenyl)-5-methoxy-4-[(1-naphthyl)methyl]-2-oxo-7-thia-1-azabicyclo[4.3.0]nona-3,5,8-triene-9-carboxylic acid] yielded an MBC (Streptococcus) of 8 µM (≈ 4.22 µg/mL), an MBC (E. faecalis) of 12.5 µM (≈ 6.6 µg/mL) and an MIC (E. faecalis) of 39 µM (≈ 20.6 µg/mL). It also gave a CFUs/ml (MRSA [8]; MRSA OD 0.001) of 8.0E+04 CFUs/ml, a CFUs/ml (MRSA [8]; MRSA OD 0.1) of 4.4E+06 CFUs/ml and a CFUs/ml (MRSA [8]; MRSA OD 1) of 5.0E+07 CFUs/ml. For the same compound, the CFUs/ml (MRSA [1]; [14]) was 2.6E+04 CFUs/ml, the CFUs/ml (MRSA [1]; [15]) was 3E+06 CFUs/ml and the MIC (MRSA [9]) was 17 µM (≈ 8.97 µg/mL). The MBC (MRSA [9]) was 37 µM (≈ 19.5 µg/mL).
